Reference: article PMC8829872 (Cancer chemotherapy and pharmacology, 2022)
Read-outs that look alike come from different tables or passages of the source.

Legend:
[1] = Extensive tissue distribution study in CT26 tumor-bearing mice; type: in vivo, Balb/c mice; settings: for Kp: oral, 75 mg/kg
Experimental: Mice were injected subcutaneously on the right flank with 1x10^6 CT26 cells, a murine colorectal carcinoma cell line from BALB/c mice,obtained from ATCC (Manassas, VA). Cells were cultured in RPMI-1640 medium with L-glutamine (BioWhittaker Inc., Walkersville, MD), containing 10% heat-inactivated fetal bovine serum and 100 units of penicillin/mL and 100 μg/mL of streptomycin (Biofluids, BioSource, Rockville, MD) in an incubator with 95% air, 5% CO2, and 95% humidity at 37 °C. Cells were verified and checked for mycoplasm by IDEXX BioAnalytics (Westbrook, ME). Implantation and tumor growth were monitored twice weekly with a digital caliper. When tumors were approximately 200 mm^3, mice were stratified into time groups (N=3) primarily using body weight and secondarily using tumor size. Mice were administered 75 mg/kg PO through oral gavage. […] Bone marrow was obtained by flushing both femurs from each mouse with PBS, followed by centrifugation at 12,000 x g and removal of the supernatant. Protein analysis of the resuspended pellet was conducted using the Bio-Rad protein assay following the manufacturer’s instructions with bovine serum albumin as the standard. Blood was processed to obtain plasma and urine and feces were collected as described above.
For tissue and tumor analysis, samples were homogenized with 3 parts PBS (v/g) and further diluted with control plasma and concentrations determined from calibration curves prepared in control plasma.

[2] = 1 h after 25 mg/kg IP; cited from earlier work
[3] = Balb/c, mouse, 75 mg/kg PO-ext, plasma

## C[C@@H]1COCCN1c1cc(C2([S@](C)(=N)=O)CC2)nc(-c2cc[nH]c3nccc2-3)n1 [AZD6738]
[1]; 75 mg/kg PO-ext
  Cl: 37.3 mL/min/kg
  Vd: 5.66 L/kg
[1]; 75 mg/kg PO-ext, unaltered drug
  0-24h urine: 3.19 % dose
[1]; 75 mg/kg PO-ext, unchanged drug
  0-24h feces: 8.58 % dose
[1]; 75 mg/kg PO, Plasma
  AUC0-∞: 2,371 (185) μg/mL•min
  Cmax: 14.1 (1.7) μg/mL
  Tmax: 15 min
[1]; 75 mg/kg PO, Plasma, 0-1440 min
  AUC(0-t): 2,371 (185) μg/mL•min
[1]; Balb/c, mouse, bone marrow / plasma, 75 mg/kg PO, Bone Marrow to corresponding plasma AUC (0-360), read-out: Partition Coefficient
  Kp: 4.6
[1]; Balb/c, mouse, brain, 75 mg/kg PO, Brain to corresponding plasma AUC (0-960), read-out: Partition Coefficient
  Kp: ~0.05
[1]; Balb/c, mouse, draining lymph node / plasma, 75 mg/kg PO, Draining Lymph Node to plasma AUC, read-out: Partition Coefficient
  Kp: 0.792
[1]; Balb/c, mouse, esophagus / plasma, 75 mg/kg PO, Esophagus to plasma AUC, read-out: Partition Coefficient
  Kp: 3.27
[1]; Balb/c, mouse, fat, 75 mg/kg PO, Fat to plasma AUC, read-out: Partition Coefficient
  Kp: 0.412
[1]; Balb/c, mouse, kidney / plasma, 75 mg/kg PO, Kidneys to plasma AUC, read-out: Partition Coefficient
  Kp: 2.77
[1]; Balb/c, mouse, kidney, 75 mg/kg PO, Kidneys
  AUC(0-inf): 109000 ng·h/mL
[1]; Balb/c, mouse, kidney, 75 mg/kg PO, Kidneys, 0-1440 min, read-out: AUC0-t (converted)
  AUC(0-t): 109000 ng·h/mL
[1]; Balb/c, mouse, kidney, 75 mg/kg PO, Kidneys, read-out: Cmax
  Cmax: 39200 ng/mL
[1]; Balb/c, mouse, kidney, 75 mg/kg PO, Kidneys, read-out: Tmax (converted)
  Tmax: 15 min
[1]; Balb/c, mouse, liver / plasma, 75 mg/kg PO, Liver to plasma AUC, read-out: Partition Coefficient
  Kp: 7.42
[1]; Balb/c, mouse, lung, 75 mg/kg PO, Lungs
  AUC(0-inf): 42100 ng·h/mL
[1]; Balb/c, mouse, lung, 75 mg/kg PO, Lungs, 0-1440 min, read-out: AUC0-t (converted)
  AUC(0-t): 42100 ng·h/mL
[1]; Balb/c, mouse, lung, 75 mg/kg PO, Lungs, read-out: Cmax
  Cmax: 17400 ng/mL
[1]; Balb/c, mouse, lung, 75 mg/kg PO, Lungs, read-out: Tmax (converted)
  Tmax: 15 min
[1]; Balb/c, mouse, non-draining lymph node / plasma, 75 mg/kg PO, Non-draining Lymph Node to plasma AUC, read-out: Partition Coefficient
  Kp: 0.983
[1]; Balb/c, mouse, red blood cells (RBC) / plasma, 75 mg/kg PO, RBC to plasma AUC, read-out: Partition Coefficient
  Kp: 0.701
[1]; Balb/c, mouse, red blood cells (RBC), 75 mg/kg PO, RBC
  AUC(0-inf): 27700 ng·h/mL
[1]; Balb/c, mouse, red blood cells (RBC), 75 mg/kg PO, RBC, 0-1440 min, read-out: AUC0-t (converted)
  AUC(0-t): 27700 ng·h/mL
[1]; Balb/c, mouse, red blood cells (RBC), 75 mg/kg PO, RBC, read-out: Cmax
  Cmax: 13200 ng/mL
[1]; Balb/c, mouse, red blood cells (RBC), 75 mg/kg PO, RBC, read-out: Tmax (converted)
  Tmax: 15 min
[1]; Balb/c, mouse, skeletal muscle, 75 mg/kg PO, Muscle
  AUC(0-inf): 41200 ng·h/mL
[1]; Balb/c, mouse, skeletal muscle, 75 mg/kg PO, Muscle, 0-1440 min, read-out: AUC0-t (converted)
  AUC(0-t): 41200 ng·h/mL
[1]; Balb/c, mouse, skeletal muscle, 75 mg/kg PO, Muscle, read-out: Cmax
  Cmax: 12500 ng/mL
[1]; Balb/c, mouse, skeletal muscle, 75 mg/kg PO, Muscle, read-out: Tmax (converted)
  Tmax: 15 min
[1]; Balb/c, mouse, small intestine / plasma, 75 mg/kg PO, Small Intestine to plasma AUC, read-out: Partition Coefficient
  Kp: 8.39
[1]; Balb/c, mouse, spinal cord, 75 mg/kg PO, Spinal Cord to plasma AUC, read-out: Partition Coefficient
  Kp: ~0.05
[1]; Balb/c, mouse, spleen / plasma, 75 mg/kg PO, Spleen to plasma AUC, read-out: Partition Coefficient
  Kp: 0.891
[1]; Balb/c, mouse, thymus / plasma, 75 mg/kg PO, Thymus to plasma AUC, read-out: Partition Coefficient
  Kp: 0.652
[1]; Balb/c, mouse, tumor / plasma, 75 mg/kg PO, Tumor to plasma AUC, read-out: Partition Coefficient
  Kp: 0.75
[1]; Balb/c, mouse, tumor, 75 mg/kg PO, CT26 tumor, read-out: Tumor exposure relative to plasma
  Kp: ~0.75
[1]; Balb/c, mouse, 75 mg/kg PO-ext (tissue distribution study), plasma, read-out: Cmax
  Cmax: 14100 ng/mL
[1]; [3]
  AUC(0-inf): 39500 ng·h/mL
  half-life: 105 min
[1]; Balb/c, mouse, 75 mg/kg PO-ext, plasma, read-out: AUC0-360 (converted)
  AUC(0-t): 39500 ng·h/mL
[1]; Balb/c, mouse, 75 mg/kg PO-ext, plasma, read-out: Tmax (converted)
  Tmax: 15 min
[1]; Balb/c, mouse, 75 mg/kg PO, Bone Marrow
  AUC(0-inf): 133000 ng·h/mL
[1]; Balb/c, mouse, 75 mg/kg PO, Bone Marrow, 0-360 min, read-out: AUC0-t (converted)
  AUC(0-t): 133000 ng·h/mL
[1]; Balb/c, mouse, 75 mg/kg PO, Bone Marrow, read-out: Cmax
  Cmax: 65800 ng/mL
[1]; Balb/c, mouse, 75 mg/kg PO, Bone Marrow, read-out: Tmax (converted)
  Tmax: 30 min
[1]; Balb/c, mouse, 75 mg/kg PO, Brain
  AUC(0-inf): 2100 ng·h/mL
[1]; Balb/c, mouse, 75 mg/kg PO, Brain, 0-960 min, read-out: AUC0-t (converted)
  AUC(0-t): 2100 ng·h/mL
[1]; Balb/c, mouse, 75 mg/kg PO, Brain, read-out: Cmax
  Cmax: 854 ng/mL
[1]; Balb/c, mouse, 75 mg/kg PO, Brain, read-out: Tmax (converted)
  Tmax: 15 min
[1]; Balb/c, mouse, 75 mg/kg PO, CT26 Tumor
  AUC(0-inf): 29600 ng·h/mL
[1]; Balb/c, mouse, 75 mg/kg PO, CT26 Tumor, 0-1440 min, read-out: AUC0-t (converted)
  AUC(0-t): 29600 ng·h/mL
[1]; Balb/c, mouse, 75 mg/kg PO, CT26 Tumor, read-out: Cmax
  Cmax: 10100 ng/mL
[1]; Balb/c, mouse, 75 mg/kg PO, CT26 Tumor, read-out: Tmax (converted)
  Tmax: 30 min
[1]; Balb/c, mouse, 75 mg/kg PO, Draining Lymph Node
  AUC(0-inf): 31300 ng·h/mL
[1]; Balb/c, mouse, 75 mg/kg PO, Draining Lymph Node, 0-1440 min, read-out: AUC0-t (converted)
  AUC(0-t): 31200 ng·h/mL
[1]; Balb/c, mouse, 75 mg/kg PO, Draining Lymph Node, read-out: Cmax
  Cmax: 12100 ng/mL
[1]; Balb/c, mouse, 75 mg/kg PO, Draining Lymph Node, read-out: Tmax (converted)
  Tmax: 15 min
[1]; Balb/c, mouse, 75 mg/kg PO, Esophagus
  AUC(0-inf): 129000 ng·h/mL
[1]; Balb/c, mouse, 75 mg/kg PO, Esophagus, 0-1440 min, read-out: AUC0-t (converted)
  AUC(0-t): 129000 ng·h/mL
[1]; Balb/c, mouse, 75 mg/kg PO, Esophagus, read-out: Cmax
  Cmax: 115000 ng/mL
[1]; Balb/c, mouse, 75 mg/kg PO, Esophagus, read-out: Tmax (converted)
  Tmax: 5 min
[1]; Balb/c, mouse, 75 mg/kg PO, Fat
  AUC(0-inf): 16300 ng·h/mL
[1]; Balb/c, mouse, 75 mg/kg PO, Fat, 0-1440 min, read-out: AUC0-t (converted)
  AUC(0-t): 16300 ng·h/mL
[1]; Balb/c, mouse, 75 mg/kg PO, Fat, read-out: Cmax
  Cmax: 9200 ng/mL
[1]; Balb/c, mouse, 75 mg/kg PO, Fat, read-out: Tmax (converted)
  Tmax: 30 min
[1]; Balb/c, mouse, 75 mg/kg PO, Heart
  AUC(0-inf): 45600 ng·h/mL
[1]; Balb/c, mouse, 75 mg/kg PO, Heart, 0-1440 min, read-out: AUC0-t (converted)
  AUC(0-t): 45600 ng·h/mL
[1]; Balb/c, mouse, 75 mg/kg PO, Heart, read-out: Cmax
  Cmax: 19400 ng/mL
[1]; Balb/c, mouse, 75 mg/kg PO, Heart, read-out: Tmax (converted)
  Tmax: 15 min
[1]; Balb/c, mouse, 75 mg/kg PO, Liver
  AUC(0-inf): 293000 ng·h/mL
[1]; Balb/c, mouse, 75 mg/kg PO, Liver, 0-1440 min, read-out: AUC0-t (converted)
  AUC(0-t): 293000 ng·h/mL
[1]; Balb/c, mouse, 75 mg/kg PO, Liver, read-out: Cmax
  Cmax: 114000 ng/mL
[1]; Balb/c, mouse, 75 mg/kg PO, Liver, read-out: Tmax (converted)
  Tmax: 15 min
[1]; Balb/c, mouse, 75 mg/kg PO, Non-draining Lymph Node
  AUC(0-inf): 38800 ng·h/mL
[1]; Balb/c, mouse, 75 mg/kg PO, Non-draining Lymph Node, 0-1440 min, read-out: AUC0-t (converted)
  AUC(0-t): 38800 ng·h/mL
[1]; Balb/c, mouse, 75 mg/kg PO, Non-draining Lymph Node, read-out: Cmax
  Cmax: 16100 ng/mL
[1]; Balb/c, mouse, 75 mg/kg PO, Non-draining Lymph Node, read-out: Tmax (converted)
  Tmax: 15 min
[1]; Balb/c, mouse, 75 mg/kg PO, Small Intestine
  AUC(0-inf): 332000 ng·h/mL
[1]; Balb/c, mouse, 75 mg/kg PO, Small Intestine, 0-1440 min, read-out: AUC0-t (converted)
  AUC(0-t): 331000 ng·h/mL
[1]; Balb/c, mouse, 75 mg/kg PO, Small Intestine, read-out: Cmax
  Cmax: 204000 ng/mL
[1]; Balb/c, mouse, 75 mg/kg PO, Small Intestine, read-out: Tmax (converted)
  Tmax: 15 min
[1]; Balb/c, mouse, 75 mg/kg PO, Spinal Cord
  AUC(0-inf): 2450 ng·h/mL
[1]; Balb/c, mouse, 75 mg/kg PO, Spinal Cord, 0-1440 min, read-out: AUC0-t (converted)
  AUC(0-t): 2420 ng·h/mL
[1]; Balb/c, mouse, 75 mg/kg PO, Spinal Cord, read-out: Cmax
  Cmax: 1010 ng/mL
[1]; Balb/c, mouse, 75 mg/kg PO, Spinal Cord, read-out: Tmax (converted)
  Tmax: 15 min
[1]; Balb/c, mouse, 75 mg/kg PO, Spleen
  AUC(0-inf): 35200 ng·h/mL
[1]; Balb/c, mouse, 75 mg/kg PO, Spleen, 0-1440 min, read-out: AUC0-t (converted)
  AUC(0-t): 35200 ng·h/mL
[1]; Balb/c, mouse, 75 mg/kg PO, Spleen, read-out: Cmax
  Cmax: 14200 ng/mL
[1]; Balb/c, mouse, 75 mg/kg PO, Spleen, read-out: Tmax (converted)
  Tmax: 15 min
[1]; Balb/c, mouse, 75 mg/kg PO, Thymus
  AUC(0-inf): 25800 ng·h/mL
[1]; Balb/c, mouse, 75 mg/kg PO, Thymus, 0-1440 min, read-out: AUC0-t (converted)
  AUC(0-t): 25800 ng·h/mL
[1]; Balb/c, mouse, 75 mg/kg PO, Thymus, read-out: Cmax
  Cmax: 9630 ng/mL
[1]; Balb/c, mouse, 75 mg/kg PO, Thymus, read-out: Tmax (converted)
  Tmax: 5 min
[2]
  brain concentration: ~200 ng/mL
